The values that follow come from patent US9416128B2, “Fused heterocyclic compounds as ion channel modulators” (Gilead Sciences, Inc., priority 2013, dated 2016).

The target in assay [1] is wild-type human cardiac sodium channel, hNaV 1.5 (Late INa) (Homo sapiens, UniProt Q14524). Description: Late INa screening assay (whole cell patch clamp, QPatch, Tefluthrin-induced late current). In kind it is cell-based. The note with it: HEK293 hNaV1.5, 10 μM Tefluthrin; for inhibition at 1 µM: HEK293, % inhibition (percent block of late INa) at 1 uM, read-out: Nav1.5 Late INa 1 uM. Here is the method:
The cardiac late sodium current (Late INa) and peak sodium current (Peak INa) assays are performed on an automated electrophysiology platform, QPatch 16X or QPatch HT (Sophion Bioscience, Copenhagen, Denmark) using the whole cell patch clamp technique to measure currents through the cell membrane. The assay uses an HEK293 (human embryonic kidney) cell line heterologously expressing the wild-type human cardiac sodium channel, hNaV 1.5, purchased from Millipore (Billerica, Mass.). No beta subunits were coexpressed with the Na channel alpha subunit. Cells are maintained with standard tissue culture procedures and stable channel expression is maintained with 400 μg/mL Geneticin in the culture medium. Experiments are carried out at 23-25° C.
For both the Late INa and Peak INa assays, series resistance compensation is set to 100% and series resistance and whole-cell compensation are performed automatically. Currents are digitized at 25 kHz and low-pass filtered at 5 kHz and stored in the Sophion Bioscience Oracle database (Sophion Bioscience, Copenhagen, Denmark). Analysis is performed using QPatch Assay software and data are compiled in Excel 2010 (Microsoft, Seattle, Wash., U.S.A.).
Compound stocks are routinely made by the Gilead Sample Bank in vials to 10 mM in dimethyl sulfoxide (DMSO). In some cases, when compounds are not soluble in DMSO, they are made in 100% ethanol. Stocks are sonicated as necessary. The extracellular solution for screening Late INa is composed of: 140 mM NaCl, 4 mM KCl, 1.8 mM CaCl2, 1 mM MgCl2, 10 mM HEPES and 10 mM Dextrose with pH adjusted to 7.35 using NaOH. The intracellular solution contains: 105 mM CsF, 20 mM CsCl, 10 NaF, 2 mM EGTA, 10 mM HEPES and 10 mM Dextrose with pH adjusted to 7.35 with CsOH. Compounds are diluted in extracellular solution using a MicroLab Nimbus (Hamilton Robotics, Reno, Nev.) to between 0.3 and 3 μM in glass vials and transferred to glass well plates before robotic addition to the cells. The 0 mM Na extracellular solution (0Na-ECF) used at the end of each experiment for the Late INa and Peak INa assays to measure baseline current contains: 140 Choline-Cl; 4 mM KCl, 1.8 mM CaCl2; 1 mM MgCl2; 10 mM HEPES and 10 mM Dextrose with pH was adjusted to 7.35 with CsOH.
For the Late INa assay, sodium channels are activated every 10 seconds (0.1 Hz) by depolarizing the cell membrane to −20 mV for 250 milliseconds (ms) from a holding potential of −120 mV.
Compounds were tested to determine their activity in blocking the late sodium current. Late INa was generated by adding 10 μM Tefluthrin (pyrethroid) to the extracellular solution. For the purposes of the screening, Late INa is defined as the mean current between 240 ms and 265 ms during the voltage step to −20 mV. After establishing the whole cell recording configuration, Late INa activator is added to each well 4 times over a 15 minute period so that the late component of the Na current reaches a stable value. Compounds were then added (typically at 0.3 or 1 μM), in the presence of the Late INa activator, with 3 additions over the course of 5 minutes. Measurements were made at the end of exposure to the third compound addition and values were normalized to the current level when all Na^+ was removed from the extracellular solution after two additions of 0Na-ECF.
Results are reported as percent block of late INa and results were analyzed by incorporating rundown correction for the Late INa.
A general note: The patch-clamp technique gives a direct electrical read-out from membranes.

For the next assay, the target named is T1, hNaV1.2 (SCN2A) (Homo sapiens, UniProt Q99250).
T1 construct: expressed in transfected cells
Description: Use-dependent inhibition of the CNS NaV1.2 sodium channel. In kind it is cell-based. The note with it: HEK-293, % inhibition, 25 Hz; for inhibition at 1 µM: use-dependent block at 1 uM, read-out: Nav1.2 UDB 25 Hz 1 uM; for inhibition at 10 µM: use-dependent block at 10 uM, read-out: Nav1.2 UDB 25 Hz 10 uM. Here is the method: HEK-293 cells stably expressing wild-type (WT) hNaV1.2 (SCN2A NCBI # NM_021007.2, SCN1B NCBI # NM_001037.4, SCN2B NCBI # NM_004588.2) were used to record INa. Cells are maintained with standard tissue culture procedures and stable channel expression is maintained with 800 ug/mL G418 and 3 ug/mL Puromycin in the culture medium. Unless otherwise noted, all reagents are purchased from Sigma-Aldrich (St Louis, Mo., U.S.A.).
Assays measuring Use-Dependent Block (UDB) of NaV1.2 are performed on an automated electrophysiology platform, QPatch 16X or QPatch HT (Sophion Bioscience, Copenhagen, Denmark), using the whole cell patch clamp technique to measure currents through the cell membrane. Series resistance compensation is set to 100% and series resistance and whole-cell compensation are performed automatically. Currents stored in the Sophion Bioscience Oracle database (Sophion Bioscience, Copenhagen, Denmark). Analysis is performed using QPatch Assay software and data are compiled in Excel 2010 (Microsoft, Seattle, Wash., U.S.A.). The internal (pipette) solution consists of (in mM) 105 CsF, 10 NaF, 20 CsCl, 2 EGTA, 10 HEPES, 10 Dextrose with a pH of 7.35 and osmolarity of 300 mOsmol/kg. The external (bath) solution contains in (mM): 145 NaCl, 4 KCl, 1.8 CaCl2, 1 MgCl2, 10 dextrose, 10 HEPES, with a pH of 7.35 and osmolarity of 310 mOsmol/kg. Experiments are carried out at 23-25° C.
Compound stocks are routinely made by the Gilead Sample Bank in vials to 10 mM in dimethyl sulfoxide (DMSO). In some cases, when compounds are not soluble in DMSO, they are made in 100% ethanol. Stocks are sonicated as necessary. […]
Cells are allowed to stabilize for 10 min after establishment of the whole-cell configuration before current is measured. The test compound is applied 2 times at 60 second intervals. After the second compound addition, a 200 second wait period was imposed to allow for equilibration. Leak currents are subtracted by using an online P/4 procedure and all currents are low-pass Bessel filtered at 5 kHz and digitized at […].
Results are presented as mean percentage inhibition.
Use-dependent block of NaV1.2 peak current is measured during pulse number 20 of a voltage pulse train (0 mV, 20 ms, 20 pulses, 25 Hz) from a holding potential of −120 mV.
Currents are normalized to the peak current recorded in response to the first pulse in each frequency train. The voltage protocol for UDB was performed in the absence and presence of compound and percentage inhibition was calculated with respect to the compound free condition.
Data analysis is performed using QPatch Assay Software 4.0, and Excel 2002 (Microsoft, Seattle, Wash., U.S.A.).

Sequence of wild-type human cardiac sodium channel, hNaV 1.5 (Late INa) (Q14524 whole entry): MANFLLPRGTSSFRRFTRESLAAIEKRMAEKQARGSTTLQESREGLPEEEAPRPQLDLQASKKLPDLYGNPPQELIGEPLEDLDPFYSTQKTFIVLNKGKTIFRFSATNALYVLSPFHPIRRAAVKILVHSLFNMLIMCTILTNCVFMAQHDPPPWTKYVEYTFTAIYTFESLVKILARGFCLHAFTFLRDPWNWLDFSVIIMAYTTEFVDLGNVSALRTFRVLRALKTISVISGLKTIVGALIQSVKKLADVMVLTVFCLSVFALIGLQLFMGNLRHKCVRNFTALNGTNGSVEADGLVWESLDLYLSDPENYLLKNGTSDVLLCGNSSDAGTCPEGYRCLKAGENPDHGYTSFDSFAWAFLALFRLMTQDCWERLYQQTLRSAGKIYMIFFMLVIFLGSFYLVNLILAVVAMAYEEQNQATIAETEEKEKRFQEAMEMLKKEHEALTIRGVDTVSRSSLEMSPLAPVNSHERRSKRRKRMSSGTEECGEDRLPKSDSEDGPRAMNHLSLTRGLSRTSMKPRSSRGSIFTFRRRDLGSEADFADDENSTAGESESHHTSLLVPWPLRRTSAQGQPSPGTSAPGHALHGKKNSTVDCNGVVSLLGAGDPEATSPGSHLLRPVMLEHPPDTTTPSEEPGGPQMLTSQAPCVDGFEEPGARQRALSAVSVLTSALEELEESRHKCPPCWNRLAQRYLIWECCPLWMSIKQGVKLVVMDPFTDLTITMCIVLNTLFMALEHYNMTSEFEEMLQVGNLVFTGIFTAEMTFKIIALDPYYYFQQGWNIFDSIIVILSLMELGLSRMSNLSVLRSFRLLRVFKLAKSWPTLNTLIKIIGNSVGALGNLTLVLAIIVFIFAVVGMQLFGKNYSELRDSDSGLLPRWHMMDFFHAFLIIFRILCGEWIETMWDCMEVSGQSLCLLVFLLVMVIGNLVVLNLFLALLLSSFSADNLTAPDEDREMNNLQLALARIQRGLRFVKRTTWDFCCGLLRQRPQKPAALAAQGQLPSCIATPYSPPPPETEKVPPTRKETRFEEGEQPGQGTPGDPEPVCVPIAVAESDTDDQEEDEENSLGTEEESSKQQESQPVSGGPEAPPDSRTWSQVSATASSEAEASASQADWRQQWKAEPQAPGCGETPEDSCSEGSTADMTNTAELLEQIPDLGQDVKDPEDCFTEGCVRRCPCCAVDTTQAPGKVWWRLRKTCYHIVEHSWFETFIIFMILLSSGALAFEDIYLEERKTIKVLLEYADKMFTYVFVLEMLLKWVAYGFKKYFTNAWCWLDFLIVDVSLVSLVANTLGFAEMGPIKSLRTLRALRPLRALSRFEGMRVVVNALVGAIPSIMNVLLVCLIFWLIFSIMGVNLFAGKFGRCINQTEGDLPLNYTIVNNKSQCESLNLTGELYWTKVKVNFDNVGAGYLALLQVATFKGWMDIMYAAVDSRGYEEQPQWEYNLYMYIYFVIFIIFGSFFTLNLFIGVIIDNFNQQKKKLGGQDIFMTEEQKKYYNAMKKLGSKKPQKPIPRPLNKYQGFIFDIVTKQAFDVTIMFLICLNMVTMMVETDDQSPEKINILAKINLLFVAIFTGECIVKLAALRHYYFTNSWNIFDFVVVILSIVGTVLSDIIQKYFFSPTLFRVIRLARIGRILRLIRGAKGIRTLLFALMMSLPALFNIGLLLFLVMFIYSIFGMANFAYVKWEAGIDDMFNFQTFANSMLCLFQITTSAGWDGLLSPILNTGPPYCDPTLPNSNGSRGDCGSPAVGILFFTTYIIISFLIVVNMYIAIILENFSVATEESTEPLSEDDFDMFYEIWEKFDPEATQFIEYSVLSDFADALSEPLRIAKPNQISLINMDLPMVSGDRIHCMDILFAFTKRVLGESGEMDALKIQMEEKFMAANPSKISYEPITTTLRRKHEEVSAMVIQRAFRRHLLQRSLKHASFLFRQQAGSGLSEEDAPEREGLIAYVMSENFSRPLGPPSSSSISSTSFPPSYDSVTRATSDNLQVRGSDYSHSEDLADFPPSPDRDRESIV
T1 sequence (Q99250 whole entry): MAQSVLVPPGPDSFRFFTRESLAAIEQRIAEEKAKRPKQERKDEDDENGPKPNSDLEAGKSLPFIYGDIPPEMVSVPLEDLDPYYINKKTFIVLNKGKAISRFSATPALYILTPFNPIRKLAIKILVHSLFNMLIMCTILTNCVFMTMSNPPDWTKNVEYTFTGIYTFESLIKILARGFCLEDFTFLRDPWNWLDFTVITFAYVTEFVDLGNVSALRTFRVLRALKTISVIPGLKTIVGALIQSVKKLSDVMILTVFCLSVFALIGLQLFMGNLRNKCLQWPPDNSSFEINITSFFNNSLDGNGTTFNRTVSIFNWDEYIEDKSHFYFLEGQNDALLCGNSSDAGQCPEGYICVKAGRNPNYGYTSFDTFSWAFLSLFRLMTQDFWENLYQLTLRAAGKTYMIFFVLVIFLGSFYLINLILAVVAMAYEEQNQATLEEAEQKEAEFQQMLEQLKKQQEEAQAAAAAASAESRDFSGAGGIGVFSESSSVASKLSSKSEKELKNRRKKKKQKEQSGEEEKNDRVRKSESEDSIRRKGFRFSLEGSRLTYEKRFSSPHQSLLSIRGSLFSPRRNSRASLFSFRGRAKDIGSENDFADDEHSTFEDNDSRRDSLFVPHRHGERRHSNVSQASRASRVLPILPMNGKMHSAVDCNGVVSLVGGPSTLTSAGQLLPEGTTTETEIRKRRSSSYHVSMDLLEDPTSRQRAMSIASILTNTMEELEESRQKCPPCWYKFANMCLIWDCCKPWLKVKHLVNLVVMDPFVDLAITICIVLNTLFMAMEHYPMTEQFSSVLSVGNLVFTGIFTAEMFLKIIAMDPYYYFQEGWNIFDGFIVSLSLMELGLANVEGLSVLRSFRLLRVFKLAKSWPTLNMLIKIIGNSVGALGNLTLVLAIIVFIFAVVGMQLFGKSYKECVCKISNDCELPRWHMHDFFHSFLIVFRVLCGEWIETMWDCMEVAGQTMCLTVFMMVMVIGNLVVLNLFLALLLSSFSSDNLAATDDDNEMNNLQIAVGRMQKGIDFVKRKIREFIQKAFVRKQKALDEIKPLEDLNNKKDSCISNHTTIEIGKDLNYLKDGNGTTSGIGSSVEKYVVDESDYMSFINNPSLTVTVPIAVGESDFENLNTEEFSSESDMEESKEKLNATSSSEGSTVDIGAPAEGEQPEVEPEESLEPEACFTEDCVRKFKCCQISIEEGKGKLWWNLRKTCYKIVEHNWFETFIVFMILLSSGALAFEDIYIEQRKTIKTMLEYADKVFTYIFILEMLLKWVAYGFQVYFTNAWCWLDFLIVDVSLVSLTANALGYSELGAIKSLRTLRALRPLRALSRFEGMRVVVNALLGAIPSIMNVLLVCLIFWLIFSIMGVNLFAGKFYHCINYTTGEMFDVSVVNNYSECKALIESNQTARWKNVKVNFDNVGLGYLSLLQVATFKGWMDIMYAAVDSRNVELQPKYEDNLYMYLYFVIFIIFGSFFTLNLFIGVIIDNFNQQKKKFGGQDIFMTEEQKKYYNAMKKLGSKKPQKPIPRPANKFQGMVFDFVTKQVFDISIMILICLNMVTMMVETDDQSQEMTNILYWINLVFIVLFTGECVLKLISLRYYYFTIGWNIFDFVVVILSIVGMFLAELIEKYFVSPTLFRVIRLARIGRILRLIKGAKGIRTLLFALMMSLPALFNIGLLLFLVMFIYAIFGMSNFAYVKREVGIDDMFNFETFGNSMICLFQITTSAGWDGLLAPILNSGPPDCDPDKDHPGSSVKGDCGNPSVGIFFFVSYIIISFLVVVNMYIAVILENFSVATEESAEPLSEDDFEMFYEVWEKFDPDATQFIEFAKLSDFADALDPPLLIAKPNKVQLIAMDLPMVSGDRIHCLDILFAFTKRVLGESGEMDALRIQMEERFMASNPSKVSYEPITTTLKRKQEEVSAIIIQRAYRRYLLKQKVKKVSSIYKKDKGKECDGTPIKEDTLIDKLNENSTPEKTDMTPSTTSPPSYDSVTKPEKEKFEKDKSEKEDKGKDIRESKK
T1 sequence (Q07699 19-218 partner): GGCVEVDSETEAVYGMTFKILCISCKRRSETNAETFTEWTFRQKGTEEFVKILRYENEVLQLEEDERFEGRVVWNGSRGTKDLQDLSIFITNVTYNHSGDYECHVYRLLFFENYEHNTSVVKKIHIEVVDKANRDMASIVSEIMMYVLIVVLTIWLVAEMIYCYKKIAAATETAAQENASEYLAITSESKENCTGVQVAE
T1 sequence (O60939 30-215 partner): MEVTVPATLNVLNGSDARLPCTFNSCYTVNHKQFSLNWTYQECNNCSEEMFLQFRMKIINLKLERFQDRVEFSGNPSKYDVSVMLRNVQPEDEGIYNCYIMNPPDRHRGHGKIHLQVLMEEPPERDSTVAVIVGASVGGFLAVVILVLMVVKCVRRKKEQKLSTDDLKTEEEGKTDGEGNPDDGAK

With `Cc1cccc(CN2Cc3cc(-c4ccc(OC(F)(F)F)cc4F)ccc3OC2=O)n1` [Example 47, 6-(2-fluoro-4-(trifluoromethoxy)phenyl)-3-((6-methylpyridin-2-yl)methyl)-3,4-dihydro-2H-benzo[e][1,3]oxazin-2-one], the inhibition at 1 µM in assay [1] is 52.8%. Besides, on hNaV1.2 (SCN2A), the inhibition at 1 µM is 14.1% and the inhibition at 10 µM came out at 55.6%.
Taken in the same sequence, the figures for `Cc1cnc(CN2Cc3cc(-c4ccc(OC(F)(F)F)cc4)ccc3OC2=O)nc1` [Example 12, 3-((5-methylpyrimidin-2-yl)methyl)-6-(4-(trifluoromethoxy)phenyl)-3,4-dihydro-2H-benzo[e][1,3]oxazin-2-one] were 50.5%, 15.4% and 68.8%.
The matching figures for `O=C1Oc2ccc(-c3ccc(OC(F)(F)F)cc3)cc2CN1CCc1ncccn1` [Example 16, 3-(2-(pyrimidin-2-yl)ethyl)-6-(4-(trifluoromethoxy)phenyl)-3,4-dihydro-2H-benzo[e][1,3]oxazin-2-one]: 48.5%, 23.4% and 52.9%.
`CCCOc1cc(OC(F)(F)F)ccc1-c1ccc2c(c1)CN(Cc1ncccn1)C(=O)O2` [Example 28, 6-(2-propoxy-4-(trifluoromethoxy)phenyl)-3-(pyrimidin-2-ylmethyl)-3,4-dihydro-2H-benzo[e][1,3]oxazin-2-one]: the inhibition at 1 µM in assay [1] came to 45.4%. Besides, on hNaV1.2 (SCN2A), the inhibition at 1 µM was determined as 17.1% and the inhibition at 10 µM came out at 58%.
Taken in the same sequence, the figures for `Cc1csc(CN2Cc3cc(-c4ccc(OC(F)(F)F)cc4Cl)ccc3OC2=O)n1` [Example 57, 6-(2-chloro-4-(trifluoromethoxy)phenyl)-3-((4-methylthiazol-2-yl)methyl)-3,4-dihydro-2H-benzo[e][1,3]oxazin-2-one] were 34.1%, 12.8% and 61.5%.
On to `COc1cc(OC(F)(F)F)ccc1-c1ccc2c(c1)CN(Cc1nc(C)cs1)C(=O)O2` [Example 58, 6-(2-methoxy-4-(trifluoromethoxy)phenyl)-3-((4-methylthiazol-2-yl)methyl)-3,4-dihydro-2H-benzo[e][1,3]oxazin-2-one], for which the inhibition at 1 µM in assay [1] came to 44.1%. Further, on hNaV1.2 (SCN2A), the inhibition at 1 µM was 10.6% and the inhibition at 10 µM is 58.7%.
Taken in the same sequence, the figures for `O=C1Oc2ccc(-c3ccc(OC(F)(F)F)cc3F)cc2CN1Cc1ccccn1` [Example 21, 6-(2-fluoro-4-(trifluoromethoxy)phenyl)-3-(pyridin-2-ylmethyl)-3,4-dihydro-2H-benzo[e][1,3]oxazin-2-one] were 44.7%, less than 5% and 59.4%.
The matching figures for `Cc1ccnc(CN2Cc3cc(-c4ccc(C(F)(F)F)cc4)ccc3OC2=O)n1` [Example 30, 3-((4-methylpyrimidin-2-yl)methyl)-6-(4-(trifluoromethyl)phenyl)-3,4-dihydro-2H-benzo[e][1,3]oxazin-2-one]: 54.5%, 47.1% and 79.6%.
`COc1cc(OC(F)(F)F)ccc1-c1ccc2c(c1)CN(Cc1ncccn1)C(=O)O2` [Example 9, 6-(2-methoxy-4-(trifluoromethoxy)phenyl)-3-(pyrimidin-2-ylmethyl)-3,4-dihydro-2H-benzo[e][1,3]oxazin-2-one]: the “Nav1.5 Late INa 1 uM” value in assay [1] (% inhibition (percent block of late INa) at 1 uM) amounted to 45.0%. Also, at hNaV1.2 (SCN2A), the inhibition at 1 µM was determined as 7.9% and the inhibition at 10 µM came out at 37%.
With `Cc1ccnc(CN2Cc3cc(-c4ccc(OC(F)(F)F)cc4C)ccc3OC2=O)n1` [Example 33, 6-(2-methyl-4-(trifluoromethoxy)phenyl)-3-((4-methylpyrimidin-2-yl)methyl)-3,4-dihydro-2H-benzo[e][1,3]oxazin-2-one], in assay [1], the inhibition at 1 µM was determined as 33%. Further, at hNaV1.2 (SCN2A), the inhibition at 1 µM came out at 17.2% and the inhibition at 10 µM came to 55.2%.
Turning to `COc1cc(OC(F)(F)F)ccc1-c1ccc2c(c1)CN(Cc1nccc(C)n1)C(=O)O2` [Example 31, 6-(2-methoxy-4-(trifluoromethoxy)phenyl)-3-((4-methylpyrimidin-2-yl)methyl)-3,4-dihydro-2H-benzo[e][1,3]oxazin-2-one], the inhibition at 1 µM worked out at 34.4% in assay [1] and 13.2% at hNaV1.2 (SCN2A). At hNaV1.2 (SCN2A), the inhibition at 10 µM came to 45.7%.
Taken in the same sequence, the figures for `Cc1cc(-c2ccc3c(c2)CN(Cc2ncccn2)C(=O)O3)ccc1OC(F)(F)F` [Example 5, 6-(3-methyl-4-(trifluoromethoxy)phenyl)-3-(pyrimidin-2-ylmethyl)-3,4-dihydro-2H-benzo[e][1,3]oxazin-2-one] were 37.3%, less than 5% and 24.9%.
Taken in the same sequence, the figures for `Cc1csc(CN2Cc3cc(-c4ccc(Cl)c(F)c4)ccc3OC2=O)n1` [Example 59, 6-(4-chloro-3-fluorophenyl)-3-((4-methylthiazol-2-yl)methyl)-3,4-dihydro-2H-benzo[e][1,3]oxazin-2-one] were 50.3%, less than 5% and 41.2%.
The matching figures for `Cc1ccnc(CN2Cc3cc(-c4ccc(OC(F)(F)F)cc4F)ccc3OC2=O)n1` [Example 32, 6-(2-fluoro-4-(trifluoromethoxy)phenyl)-3-((4-methylpyrimidin-2-yl)methyl)-3,4-dihydro-2H-benzo[e][1,3]oxazin-2-one]: 43.4%, 8.1% and 41%.
